Measured values published in patent US6667335B2, “Imidazole derivatives” (Hoffmann-La Roche Inc., priority 2001, dated 2003).

Columns and labels:
NMDA-receptor subtype 2B = biological target: T1, NMDA-receptor subtype 2B (Rattus norvegicus, UniProt P35439+Q00960); experiment: 3H-Ro 25-6981 binding (displacement) on rat brain membranes; conditions: displacement of 5 nM 3H-Ro 25-6981, rat whole brain membranes (minus cerebellum and medulla oblongata), 2 hours at 4° C.
T1 construct: Membranes were prepared by homogenization of the whole brain minus cerebellum and medulla oblongata; from tissue; host or cells: rat whole brain minus cerebellum and medulla oblongata, membrane preparation
Description: ^3H[R-(R*,S*)]-(α-(4-Hydroxy-phenyl)-β-methyl-4-(phenyl-methyl)-1-piperidine propanol)binding
Male Füllinsdorf albino rats weighing between 150-200 g were used. Membranes were prepared by homogenization of the whole brain minus cerebellum and medulla oblongata with a Polytron (10.000 rpm, 30 seconds), in 25 volumes of a cold Tris-HCl 50 mM, EDTA 10 mM, pH 7.1 buffer. The homogenate was centrifuged at 48,000 g for 10 minutes at 4° C. The pellet was resuspended using the Polytron in the same volume of buffer and the homogenate was incubated at 37° C. for 10 minutes. After centrifugation the pellet was homogenized in the same buffer and frozen at −80° C. for at least 16 hours but not more than 10 days. For the binding assay the homogenate was thawed at 37° C., centrifuged and the pellet was washed three times as above in a Tris-HCl 5 mM, pH 7.4 cold buffer. The final pellet was resuspended in the same buffer and used at a final concentration of […]. ^3H-Ro 25-6981 binding experiments were performed using a Tris-HCl 50 mM, pH 7.4 buffer. For displacement experiments 5 nM of ^3H-Ro 25-6981 were used and non specific binding was measured using 10 mM of tetrahydroisoquinoline and usually it accounts for 10% of the total. The incubation time was 2 hours at 4° C. and the assay was stopped by filtration on Whatmann GF/B glass fiber filters (Unifilter-96, Packard, Zürich, Switzerland). The filters were washed 5 times with cold buffer. The radioactivity on the filter was counted on a Packard Top-count microplate scintillation counter after addition of […] of microscint 40 (Canberra Packard S.A., Zuirich, Switzerland).
The effects of compounds were measured using a minimum of 8 concentrations and repeated at least once.

T1 sequence (Q00960 27-1482, other chains not shown): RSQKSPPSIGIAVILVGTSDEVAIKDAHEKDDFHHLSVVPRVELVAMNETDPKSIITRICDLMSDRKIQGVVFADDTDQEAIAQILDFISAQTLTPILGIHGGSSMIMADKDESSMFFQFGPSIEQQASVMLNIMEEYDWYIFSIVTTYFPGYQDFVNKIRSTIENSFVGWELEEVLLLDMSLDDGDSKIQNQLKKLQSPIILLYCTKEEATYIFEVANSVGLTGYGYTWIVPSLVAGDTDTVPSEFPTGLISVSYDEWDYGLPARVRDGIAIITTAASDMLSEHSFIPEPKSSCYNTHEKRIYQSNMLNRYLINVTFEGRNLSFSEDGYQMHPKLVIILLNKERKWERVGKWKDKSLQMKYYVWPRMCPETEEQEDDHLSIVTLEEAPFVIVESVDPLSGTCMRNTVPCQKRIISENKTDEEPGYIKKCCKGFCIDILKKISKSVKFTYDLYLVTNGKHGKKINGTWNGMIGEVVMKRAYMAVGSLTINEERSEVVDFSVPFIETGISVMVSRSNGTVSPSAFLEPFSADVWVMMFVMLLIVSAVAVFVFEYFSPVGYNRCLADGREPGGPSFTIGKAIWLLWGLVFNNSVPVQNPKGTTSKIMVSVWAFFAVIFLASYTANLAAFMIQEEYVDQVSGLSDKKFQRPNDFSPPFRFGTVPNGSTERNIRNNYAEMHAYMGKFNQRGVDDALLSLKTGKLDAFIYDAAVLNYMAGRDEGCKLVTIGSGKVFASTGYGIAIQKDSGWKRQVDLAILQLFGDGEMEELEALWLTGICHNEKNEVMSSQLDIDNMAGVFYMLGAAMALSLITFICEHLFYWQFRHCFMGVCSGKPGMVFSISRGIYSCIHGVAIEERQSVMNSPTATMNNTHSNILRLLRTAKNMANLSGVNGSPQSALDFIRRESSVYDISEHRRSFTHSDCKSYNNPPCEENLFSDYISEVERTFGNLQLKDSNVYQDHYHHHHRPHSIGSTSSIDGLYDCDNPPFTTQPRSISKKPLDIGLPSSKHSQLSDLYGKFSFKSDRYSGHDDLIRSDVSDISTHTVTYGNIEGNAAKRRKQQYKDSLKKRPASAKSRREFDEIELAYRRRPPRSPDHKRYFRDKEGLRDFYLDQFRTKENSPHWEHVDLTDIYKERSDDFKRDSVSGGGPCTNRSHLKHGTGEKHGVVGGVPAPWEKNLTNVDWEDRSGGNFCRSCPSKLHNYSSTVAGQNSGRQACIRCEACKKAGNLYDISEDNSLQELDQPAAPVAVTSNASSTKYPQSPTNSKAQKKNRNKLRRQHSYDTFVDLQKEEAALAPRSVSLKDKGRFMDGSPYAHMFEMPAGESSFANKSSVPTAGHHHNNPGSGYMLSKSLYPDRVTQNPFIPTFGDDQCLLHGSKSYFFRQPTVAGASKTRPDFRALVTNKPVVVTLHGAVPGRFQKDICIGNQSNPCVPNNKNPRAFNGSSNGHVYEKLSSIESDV

Structure (SMILES)	IC50 (NMDA-receptor subtype 2B)	melting point
C=Cc1cccc(-n2cnc(Cn3ccnc3C)c2)c1.Cl.Cl [Example 172, 1H-Imidazole, 2-Methyl-1-[[1-(3-vinylphenyl)-1H-imidazol-4-yl]methyl]-, Hydrochloride (1:2)]	24 nM	207 to 208 °C
CCc1nccn1Cc1cn(-c2cccc(Cl)c2)cn1.Cl.Cl [Example 174, 1H-Imidazole, 1-[[1-(3-Chlorophenyl)-1H-imidazol-4-yl]methyl]-2-ethyl-, Hydrochloride (1:2)]	63 nM	> 200 °C (dec.)
Cc1nccn1Cc1cn(-c2cccc(I)c2)cn1.Cl.Cl [Example 176, 1H-Imidazole, 1-[[1-(3-Iodophenyl)-1H-imidazol-4-yl]methyl]-2-methyl-, Hydrochloride (1:2)]	32 nM	> 222 °C (dec.)
CCc1nccn1Cc1cn(-c2cc(F)cc(C(F)(F)F)c2)cn1.Cl.Cl [Example 177, 1H-Imidazole, 2-Ethyl-1-[[1-[3-fluoro-5(trifluoromethyl)phenyl]-1H-imidazol-4-yl]methyl]-, Hydrochloride (1:2)]	37.5 nM	243 to 244 °C
Cc1nccn1Cc1cn(-c2cc(F)cc(C(F)(F)F)c2)cn1.Cl.Cl [Example 178, 1H-Imidazole, 1-[[1-[3-Fluoro-5(trifluoromethyl)phenyl]-1H-imidazol-4-yl]methyl]-2-methyl-, Hydrochloride (1:2)]	74 nM	> 250 °C
COc1cc(-n2cnc(Cn3ccnc3C)c2)cc(C(F)(F)F)c1.Cl.Cl [Example 180, 1H-Imidazole, 1-[[1-[3-Methoxy-5(trifluoromethyl)phenyl]-1H-imidazol-4-yl]methyl]-2-methyl-, Hydrochloride (1:2)]	50 nM	246 to 247 °C
Cc1nccn1Cc1cn(-c2cccc(C(C)(C)C)c2)cn1.Cl.Cl [Example 183, 1H-Imidazole, 1-[[1-(3-tert-Butylphenyl)-1H-imidazol-4-yl]methyl]-2-methyl-, Hydrochloride (1:2)]	52 nM	> 200 °C (dec.)
Cc1nccn1Cc1cn(-c2ccc(OC(F)(F)F)c(Cl)c2)cn1.Cl.Cl [Example 186, 1H-Imidazole, 1-[[1-[3-Chloro-4(trifluoromethoxy)phenyl]-1H-imidazol-4-yl]methyl]-2-methyl-, Hydrochloride (1:2)]	52 nM	221 to 222 °C
CCc1nccn1Cc1cn(-c2cccc(OC(F)F)c2)cn1.Cl.Cl [Example 189, 1H-Imidazole, 1-[[1-[3-(Difluoromethoxy)phenyl]-1H-imidazol-4-yl]methyl]-2-ethyl-, Hydrochloride (1:2)]	53 nM	216 to 217 °C
Cc1nccn1Cc1cn(-c2cccc(Br)c2)cn1.Cl.Cl [Example 192, 1H-Imidazole, 1-[[1-(3-Bromophenyl)-1H-imidazol-4-yl]methyl]-2-methyl-, Hydrochloride (1:2)]	55 nM	205 to 207 °C
Cc1nccn1Cc1cn(-c2cccc(C(F)F)c2)cn1.Cl.Cl [Example 194, 1H-Imidazole, 1-[[1-[3-(Difluoromethyl)phenyl]-1H-imidazol-4-yl]methyl]-2-methyl-, Hydrochloride (1:2)]	79 nM	195 to 196 °C
CCc1nccn1Cc1cn(-c2cc(F)cc(Br)c2)cn1.Cl.Cl [Example 199, 1H-Imidazole, 1-[[1-(3-Bromo-5-fluorophenyl)-1H-imidazol-4-yl]methyl]-2-ethyl-, Hydrochloride (1:2)]	98 nM	> 200 °C (dec.)
Cl.Cl.Nc1nccn1Cc1cn(-c2ccc3c(c2)OCO3)cn1 [Example 224, 1-(1-Benzo[1,3]dioxol-5-yl-1H-imidazol-4-ylmethyl)-1H-imidazol-2-ylamine Hydrochloride (1:2)]	10 nM	> 245 °C (dec.)
